Entries after “also recorded” stand apart in the source; their conditions may differ. Where two headings read alike, the source gives them in different places.
Assays:
Hepg2s spheroids = type: cell-based; settings: for necrotic core formation / cell death necrosis relative to control: hypoxic and nutrient deprivation stress, DRAQ7, up to day 7
Protocol: Media changes were on alternative days. […] DMSO controls were added on each plate.
In some of the following Examples, human 3D cell culture was employed using liver Hepg2 cells. 3D cell culture is known to accurately replicate a cell's native environment. During embryonic development, cells aggregate and self-assemble into complex multi-cellular structures. The same aggregation process can likewise occur in in vitro culture systems if cell-cell cohesion is favoured over cell attachment to a substrate. The resulting 3D cell culture aggregates are known as spheroids. […] A standard method of spheroid formation in U-bottom low adhesion plates was used in the Examples herein.
This is because, as the spheroids grow, only the peripheral cells obtain oxygen and nutrients from the cell culture medium. The inner cells die from cell death necrosis, with the formation of large necrotic cores (observable though use of standard live dead stains). Thus, necrotic core formation represents a naturally occurring hypoxic and nutrient stress. This resembles multiple forms of shock in humans where blood flow carrying nutrients and oxygen is disrupted to certain cells, tissues and/or organs.

[1] = known in the art; cited from earlier work
[2] = system: human intestinal fibroblast primary cell spheroids; experiment: Human intestinal fibroblast primary cell spheroids, hydrogen peroxide oxidative stress, Calcein AM/Ethidium homodimer-1 stain; type: cell-based; settings: hydrogen peroxide 800 μM for 6 hrs; preventative; Dantrolene 100 μM, retinoic acid 10, 20 or 40 μM, Nifedipine 10 μM
Protocol: Media changes were on alternative days. […] Drug treatment was done overnight prior stress. […] Two repeats of all conditions were performed. Each repeat used 31 organoids per condition. […] DMSO controls were assessed in parallel on each plate.
Thus far, the Examples have focused on hypoxic and nutrient deprivation stressors. To test other stressors, this Example uses an oxidative stress/toxin stress model, where human intestinal fibroblast (HIF) primary cell spheroids were exposed to hydrogen peroxide. The standard viability Calcein AM/Ethidium homodimer-1 staining was used as a marker of cell death. Following 800 μM hydrogen peroxide exposure for 6 hrs, just over 25% of cells were dead in the control (i.e. relative to Triton X-100 that kills all cells).

Molecule | necrotic core formation / cell death necrosis relative to control (Hepg2s spheroids; Hepg2s spheroids) | further results
CCCCCCCC/C=C\CCCCCCCC(=O)O [oleic acid] | no significant difference from the control; also recorded: No significant necrosis prevention and/or treatment; also recorded: no significant effect on cell necrosis relative to control | –
CC1(C)[C@@H](O)CC[C@]2(C)[C@H]3C(=O)C=C4[C@@H]5C[C@@](C)(C(=O)O)CC[C@]5(C)CC[C@@]4(C)[C@]3(C)CC[C@@H]12 [glycyrrhetinic acid] | No significant necrosis prevention and/or treatment | –
CCCCC/C=C\C/C=C\CCCCCCCC(=O)O [linoleic acid] | No significant necrosis prevention and/or treatment | level of cell death / toxicity in isolation relative to control (Hepg2s spheroids): greater toxicity relative to control
O=C(O)CN(CCN(CC(=O)O)CC(=O)O)CCN(CC(=O)O)CC(=O)O [DTPA, diethylenetriaminepentaacetic acid] | – | toxicity at earlier time points (Hepg2s spheroids): some mild, but not statistically significant, toxicity; dosage needed to suppress necrosis (Hepg2s spheroids; Hepg2s spheroids, day 7): 4000 µM; cell culture dosages considered maximum dosages which result in minimum toxicity [1]: around 50 μM
CCCCCCCCO [octanol] | No significant necrosis prevention and/or treatment | level of cell death / toxicity in isolation relative to control (Hepg2s spheroids; compound in isolation, most trials): greater toxicity relative to control
FC(F)(F)C(Cl)Br (stereo not shown) [halothane] | No significant necrosis prevention and/or treatment | –
OC(c1cc(C(F)(F)F)nc2c(C(F)(F)F)cccc12)C1CCCCN1 (stereo not shown) [mefloquine] | No significant necrosis prevention and/or treatment | –
CCCCCCCO [heptanol] | No significant necrosis prevention and/or treatment | –
CCN(CC)CCOC(=O)c1ccc(N)cc1 [procaine] | no significant difference from the controls; also recorded: no significant effect on level of cell death necrosis | –
O=C(O)c1ccccc1Nc1cccc(C(F)(F)F)c1 [flufenamic acid] | No significant necrosis prevention and/or treatment | –
CCCCC/C=C\C/C=C\C/C=C\C/C=C\CCCC(=O)O [arachidonic acid] | No significant necrosis prevention and/or treatment | –
N.N.N.N.N.N.N.N.N.N.N.N.N.N.[Cl-].[Cl-].[Cl-].[Cl-].[Cl-].[Cl-].[O-2].[O-2].[Ru+3].[Ru+3].[Ru+4] [ruthenium red] | no significant difference from the controls; also recorded: no significant effect on level of cell death necrosis | –
CC1(C)[C@@H](OC(=O)CCC(=O)O)CC[C@]2(C)[C@H]3C(=O)C=C4[C@@H]5C[C@@](C)(C(=O)O)CC[C@]5(C)CC[C@@]4(C)[C@]3(C)CC[C@@H]12 [carbenoxolone] | No significant necrosis prevention and/or treatment | –
O=C(O)c1cccnc1Nc1cccc(C(F)(F)F)c1 [niflumic acid] | No significant necrosis prevention and/or treatment | –
CCCCCCCC/C=C\CCCCCCCC(N)=O [oleamide] | No significant necrosis prevention and/or treatment | –
C=C[C@H]1C[N@@]2CC[C@H]1C[C@@H]2[C@@H](O)c1ccnc2ccc(OC)cc12 [quinidine] | No significant necrosis prevention and/or treatment | –
ryanodine | no significant difference from the control; also recorded: no significant difference to control | –
COc1ccc([C@@H]2N[C@H](C(=O)O)Cc3c2[nH]c2ccccc32)cc1CN1CCN(c2ccccc2F)CC1 (relative stereo) [cis-Ned 19] | no significant difference from the control; also recorded: no significant effect on level of cell death necrosis | –
C=C[C@H]1C[N@@]2CC[C@H]1C[C@H]2[C@H](O)c1ccnc2ccc(OC)cc12 [quinine] | No significant necrosis prevention and/or treatment | –
Cc1ccc(Cl)c(Nc2ccccc2C(=O)O)c1Cl [meclofenamic acid] | No significant necrosis prevention and/or treatment | –
CC(=O)OCOC(=O)CN(CC(=O)OCOC(C)=O)c1ccccc1OCCOc1ccccc1N(CC(=O)OCOC(C)=O)CC(=O)OCOC(C)=O [BAPTA-AM, 2-[N-[2-(acetyloxymethoxy)-2-oxoethyl]-2-[2-[2-[bis [2-(acetyloxymethoxy)-2-oxoethyl]amino]phenoxy]ethoxy]anilino]acetic acid acetyloxymethyl ester] | – | toxicity at earlier time points (Hepg2s spheroids; time points earlier than day 7): some milder toxicity in some trials; necrosis suppression (Hepg2s spheroids; x8 dosage, 25 μM, day 7): significant necrosis suppression; cell culture dosages considered maximum dosages which result in minimum toxicity [1]: 1 to 3 µM
O=C1CN(/N=C/c2ccc(-c3ccc([N+](=O)[O-])cc3)o2)C(O)=N1 [Dantrolene] | no significant difference from the control; also recorded: no significant effect on necrosis inhibition; also recorded: no significant effect on cell necrosis relative to control | necrotic core formation / cell death necrosis relative to control (Hepg2s spheroids; Hepg2s spheroids, listed as dantrolene): no significant difference to control; necrosis following oxidative stress relative to control [2]: either no significant difference or a worse effect to control
COc1ccc([C@H]2N[C@H](C(=O)O)Cc3c2[nH]c2ccccc32)cc1CN1CCN(c2ccccc2F)CC1 (relative stereo) [trans-Ned 19] | no significant difference from the control; also recorded: no significant effect on level of cell death necrosis | –
